# Laboratory results taken from patent publication US9216954B2, “Serine racemase inhibitor” (National University Corporation University of Toyama, priority 2012, dated 2015).
# Biological target: T1, Recombinant SR (serine racemase) (Homo sapiens, UniProt Q9GZT4)
# T1 construct: made in house; host or cells: Escherichia coli
# T1 sequence (Q9GZT4 1-340): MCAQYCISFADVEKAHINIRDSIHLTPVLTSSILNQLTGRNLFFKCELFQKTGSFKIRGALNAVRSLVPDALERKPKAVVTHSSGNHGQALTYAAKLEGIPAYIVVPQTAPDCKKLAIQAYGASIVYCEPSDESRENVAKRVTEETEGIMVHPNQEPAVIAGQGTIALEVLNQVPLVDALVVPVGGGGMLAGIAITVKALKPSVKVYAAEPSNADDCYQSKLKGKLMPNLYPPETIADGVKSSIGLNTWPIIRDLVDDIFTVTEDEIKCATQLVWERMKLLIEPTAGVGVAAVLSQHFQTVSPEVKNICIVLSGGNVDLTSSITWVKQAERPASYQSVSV
# Assay: Serine racemase (SR) enzyme activity measurement: L-serine racemization reaction, D-serine quantified via Dsd1/DNP colorimetry
# Type: biochemical
# Conditions: compound 0.3 mM (footnote ‡); value in parentheses = malonic acid (control) in the same run
# Procedure: (1) L-Serine Racemization Reaction
# (2) Quantitative Determination of D-serine
# D-serine was quantitatively determined in accordance with the method proposed by Ito et al. (Analytical Biochemistry, 371: 167-172, 2007).
# A solution including 25 μL of 100 mM HEPES (pH: 8.0), 20 μM PLP, and 2 μg of recombinant D-serine dehydratase 1 (Dsd1) was added to 25 μL of the reaction mixture (see (1)), and the mixture was reacted at 30° C. for 30 minutes.
# In order to measure pyruvic acid produced from D-serine by Dsd1 using a colorimetric reaction, 50 μL of 0.05% DNP/2M HCl was added to 50 μL of the reaction solution, and the mixture was reacted at 30° C. for 5 minutes. After the addition of 100 μL of ethanol and 125 μL of 10 M NaOH, the mixture was sufficiently mixed, and reacted at room temperature for 10 minutes, and the absorbance at a wavelength of 515 nm was measured using a spectrophotometer.
row,% human (0. 3 mM),SMILES
1,48%,"O=C(Nc1ccc(Cl)c(Cl)c1)Nc1ccccc1NS(=O)(=O)c1ccc(Br)cc1 [ED-27, 4-Bromo-N-{2-[3-(3,4-dichloro-phenyl)-ureido]-phenyl}-benzenesulfonamide]"
2,58%,"COc1ccc(S(=O)(=O)Nc2ccccc2NC(=O)Nc2ccc(Cl)c(Cl)c2)cc1 [ED-31, N-{2-[3-(3,4-Dichloro-phenyl)-ureido]-phenyl}-4-methoxy-benzenesulfonamide]"
3,46%,"O=C(Nc1ccc(Cl)cc1Cl)Nc1ccccc1NS(=O)(=O)c1ccc(Cl)cc1 [ED-36, 4-Chloro-N-{2-[3-(2,4-dichloro-phenyl)-ureido]-phenyl}-benzenesulfonamide]"
4,48%,"Cc1ccc(/C=C/S(=O)(=O)Nc2ccccc2NC(=O)Nc2ccc(Cl)c(Cl)c2)cc1 [ED-37, 2-p-Tolyl-ethenesulfonic acid {2-[3-(3,4-dichloro-phenyl)-ureido]phenyl}-amide]"
5,51%,"O=C(O)CC(=O)O [malonic acid, reference compound]"
